# Measured values as given in US5811421A, “Naphthyl and dihydronaphthyl intermediates, compounds, compositions, and methods” (Eli Lilly and Company, priority 1996, dated 1998).
# Structures can show the parent of a compound that is named as a salt.
# Experiments:
# [1] = tested on: ovariectomized rats (uterus); assay: Uterine weight in ovariectomized (OVX) rats, 4-day oral dosing; assay type: in vivo, female Sprague Dawley rats; settings: for Uterine Weight (% increase vs. OVX): OVX rats
# Description: (§1) In the examples illustrating the methods of the present invention, a post-menopausal model was used in which effects of different treatments upon circulating lipids were determined.
# (§2) Seventy-five day old female Sprague Dawley rats (weight range of 200 to 225g) were obtained from Charles River Laboratories (Portage, MI). The animals were either bilaterally ovariectomized (OVX) or exposed to a Sham surgical procedure at Charles River Laboratories, and then shipped after one week. Upon arrival, they were housed in metal hanging cages in groups of 3 or 4 per cage and had ad libitum access to food (calcium content approximately 0.5%) and water for one week. Room temperature was maintained at 22.2°±1.7° C. with a minimum relative humidity of 40%. The photoperiod in the room was 12 hours light and 12 hours dark.
# (§3) Dosing Regimen Tissue Collection. After a one week acclimation period (therefore, two weeks post-OVX) daily dosing with test compound was initiated. 17α-ethynyl estradiol or the test compound were given orally, unless otherwise stated, as a suspension in 1% carboxymethylcellulose or dissolved in 20% cyclodextrin. Animals were dosed daily for 4 days. Following the dosing regimen, animals were weighed and anesthetized with a ketamine: xylazine (2:1, V:V) mixture and a blood sample was collected by cardiac puncture. The animals were then sacrificed by asphyxiation with CO2, the uterus was removed through a midline incision, and a wet uterine weight was determined.
# (§4) Data presented in Table 1 below show comparative results among ovariectomized rats, rats treated with 17α-ethynyl estradiol (EE2; an orally available form of estrogen), and rats treated with certain compounds of the present invention. […] This uterine response to estrogen is well recognized in the art.
# (§5) The data presented in the Tables 1 below reflects the response of 5 to 6 rats per treatment.
# [2] = tested on: Uterine Eosinophil Peroxidase (EPO); assay: Uterine Eosinophil Peroxidase (EPO) Assay / eosinophil infiltration into the uterus of ovariectomized rats; assay type: in vivo, female Sprague Dawley rats; design: Uterine EPO (V. max): unit not given here; settings: for Uterine EPO (V. max): OVX rats, oral
# Description: as §1, §2, §3
# Uterine Eosinophil Peroxidase (EPO) Assay. Uteri were kept at 4° C. until time of enzymatic analysis. The uteri were then homogenized in 50 volumes of 50 mM Tris buffer (pH-8.0) containing 0.005% Triton X-100. Upon addition of 0.01% hydrogen peroxide and 10 mM O-phenylenediamine (final concentrations) in Tris buffer, increase in absorbance was monitored for one minute at 450 nm. The presence of eosonophils in the uterus is an indication of estrogenic activity of a compound. The maximal velocity of a 15 second interval was determined over the initial, linear portion of the reaction curve.
# As is expressed in the below data, estrogenicity also was assessed by evaluating the adverse response of eosinophil infiltration into the uterus.
# as §5
# serum cholesterol = assay: Serum cholesterol in ovariectomized rats, 4-day oral dosing; assay type: in vivo, female Sprague Dawley rats; settings: for Serum Cholesterol (% decrease vs. OVX): OVX rats
# Description: as §1, §2, §3
# Cholesterol Analysis. Blood samples were allowed to clot at room temperature for 2 hours, and serum was obtained following centrifugation for 10 minutes at 3000 rpm. Serum cholesterol was determined using a Boehringer Mannheim Diagnostics high performance cholesterol assay. Briefly the cholesterol was oxidized to cholest-4-en-3-one and hydrogen peroxide. The hydrogen peroxide was then reacted with phenol and 4-amino-phenazone in the presence of peroxidase to produce a p-quinone imine dye, which was read spectrophotemetrically at 500 nm. Cholesterol concentration was then calculated against a standard curve. The entire assay was automated using a Biomek Automated Workstation.
# as §4, §5
# [3] = tested on: proximal tibiae metaphysis (bone mineral density) of ovariectomized rats; assay: Osteoporosis Test Procedure: protection against bone loss in ovariectomized rats, 35 days; assay type: in vivo; settings: oral; for Tibia BMD pQCT (% protection): OVX rats
# Excerpt: Seventy-five day old female Sprague Dawley rats (weight range of 200 to 225g) were obtained from Charles River Laboratories (Portage, MI). The animals were either bilaterally ovariectomized (OVX) or exposed to a Sham surgical procedure at Charles River Laboratories, and then shipped after one week. Upon arrival, they were housed in metal hanging cages in groups of 3 or 4 per cage and had ad libitum access to food (calcium content approximately 0.5%) and water for one week. Room temperature was maintained at 22.2°±1.7° C. with a minimum relative humidity of 40%. The photoperiod in the room was 12 hours light and 12 hours dark. Following the General Preparation Procedure, infra, the rats were treated daily for 35 days (6 rats per treatment group) and sacrificed by carbon dioxide asphyxiation on the 36th day. The 35 day time period was sufficient to allow maximal reduction in bone density, measured as described herein. At the time of sacrifice, the uteri were removed, dissected free of extraneous tissue, and the fluid contents were expelled before determination of wet weight in order to confirm estrogen deficiency associated with complete ovariectomy. […] The uteri were then placed in 10% neutral buffered formalin to allow for subsequent histological analysis. The right femurs were excised and digitilized x-rays generated and analyzed by an image analysis program (NIH image) at the distal metaphysis. The proximal aspect of the tibiae from these animals were also scanned by quantitative computed tomography. In accordance with the above procedures, compounds of the present invention and ethynyl estradiol (EE2) in 20% hydroxypropyl β-cyclodextrin were orally administered to test animals. Proximal tibiae metaphysis data presented in Table 2 are the results of formula I compound treatments compared to intact and ovariectomized test animals. Results are reported as percent protection against bone loss which was calculated for individual animals by the following formula: % protection=(BMDtest BMDovx)/(BMDsham -BMDovx)×100.
# [4] = tested on: MCF-7 breast adenocarcinoma cells; assay: MCF-7 Proliferation Assay; assay type: cell-based; settings: Homo sapiens, MCF7; MCF-7 cells, tritiated thymidine incorporation, 48 hours
# Description: MCF-7 Proliferation Assay MCF-7 breast adenocarcinoma cells (ATCC HTB 22) were maintained in MEM (minimal essential medium, phenol red- free, Sigma, St. Louis, Mo.) supplimented with 10% fetal bovine serum (FBS) (V/V), L-glutamine (2 mM), sodium pyruvate (1 mM), HEPES {(N-[2-hydroxyethyl]piperazine-N'-[2-ethanesulfonic acid]10 mM}, non-essential amino acids and bovine insulin (1 ug/mL) (maintenance medium). Ten days prior to assay, MCF-7 cells were switched to maintenance medium supplemented with 10% dextran coated charcoal stripped fetal bovine serum (DCC-FBS) assay medium) in place of 10% FBS to deplete internal stores of steroids. MCF-7 cells were removed from maintenance flasks using cell dissociation medium (Ca++/Mg++free HBSS (phenol red-free) supplemented with 10 mM HEPES and 2 mM EDTA). Cells were washed twice with assay medium and adjusted to 80,000 cells/mL. Approximately 100 μL (8,000 cells) were added to flat-bottom microculture wells (Costar 3596) and incubated at 37° C. in a 5% CO2 humidified incubator for 48 hours to allow for cell adherence and equilibration after transfer. Serial dilutions of drugs or DMSO as a diluent control were prepared in assay medium and 50 μL transferred to triplicate microcultures followed by 50 μL assay medium for […]. After an additional 48 hours at 37° C. in a 5% CO2 humidified incubator, microcultures were pulsed with tritiated thymidine (1 uCi/well) for 4 hours. Cultures were terminated by freezing at -70° C. for 24 hours followed by thawing and harvesting of microcultures using a Skatron Semiautomatic Cell Harvester. Samples were counted by liquid scintillation using a Wallac BetaPlace β counter. Results in Table 4 below show the IC50 for certain compounds of the present invention.
# [5] = 0.1 mg/kg daily for 35 days, values marked * (two tailed Student's T Test)
SMILES,IC50 [4] [nM],Uterine weight (in words) ([1]; 0.1 mg/kg/day),Uterine Weight (% increase vs. OVX) ([1]; 0.1 mg/kg daily for 4 days) [%],Uterine EPO (V. max) ([2]; 0.1 mg/kg daily for 4 days),eosinophil infiltration into the uterus (in words) ([2]; stromal layer of ovariectomized rats),Serum cholesterol (in words) (serum cholesterol; 0.1 mg/kg/day),Serum Cholesterol (% decrease vs. OVX) (serum cholesterol; 0.1 mg/kg daily for 4 days) [%],"Tibia BMD pQCT (% protection) [3, 5] [%]","prevention of bone loss (in words) ([3]; ovariectomized rats, 35 days)",Uterine Weight (% increase vs. OVX) ([1]; 1.0 mg/kg daily for 4 days) [%],Uterine Weight (% increase vs. OVX) ([1]; 10.0 mg/kg daily for 4 days) [%],Uterine EPO (V. max) ([2]; 1.0 mg/kg daily for 4 days),Uterine EPO (V. max) ([2]; 10.0 mg/kg daily for 4 days),Serum Cholesterol (% decrease vs. OVX) (serum cholesterol; 1.0 mg/kg daily for 4 days) [%],Serum Cholesterol (% decrease vs. OVX) (serum cholesterol; 10.0 mg/kg daily for 4 days) [%],Tibia BMD pQCT (% protection) ([3]; 0.01 mg/kg daily for 35 days) [%],Tibia BMD pQCT (% protection) ([3]; 1.0 mg/kg daily for 35 days) [%],"Tibia BMD pQCT (% protection) ([3]; 3.0 mg/kg daily for 35 days, value marked * (two tailed Student's T Test)) [%]"
"C#C[C@]1(O)CC[C@H]2[C@@H]3CCc4cc(O)ccc4[C@H]3CC[C@@]21C [EE2, 17α-ethynyl estradiol, reference compound]",,uterine weight was substantially greater than the uterine weight of ovariectomized test animals,86.3,116.4,"substantial, expected increase in eosinophil infiltration",caused a decrease in serum cholesterol,81.4,60.9,prevented this loss,,,,,,,,,
"Oc1ccc2c(Cc3ccc(OCCN4CCCCC4)cc3)c([C@H]3CC[C@H](O)CC3)ccc2c1 [Example 2, hydrochloride]",1,,32.0,4.8,,,57.8,,,17.1,6.7,4.8,3.6,71.8,34.9,,,
"COc1ccc2c(c1)CCC(C1CCCCC1)=C2C(=O)c1ccc(OCCN2CCCCC2)cc1 [Example 4, [3,4-Dihydro-2-cyclohexyl-6-methoxynaphthalen-1-yl][4-[2-(1-piperdinyl)ethoxy]phenyl]methanone]",,,32.0,2.1,,,65.5,,,30.7,24.2,8.1,10.6,56.6,58.3,,,
"CCc1ccc2cc(O)ccc2c1Cc1ccc(OCCN2CCCCC2)cc1 [Example 1, [2-Ethyl-6-hydroxynaphthalen-1-yl][4-[2-(1-piperdinyl)ethoxy]phenyl]methanehydrochloride]",10,,-3.3,6.6,,,20.3,,,3.0,60.2,12.0,12.0,23.1,38.6,,,

# Continued, in another order:
IC50 [4] [nM],SMILES,Uterine weight (in words) ([1]; 0.1 mg/kg/day),Uterine Weight (% increase vs. OVX) ([1]; 0.1 mg/kg daily for 4 days) [%],Uterine EPO (V. max) ([2]; 0.1 mg/kg daily for 4 days),eosinophil infiltration into the uterus (in words) ([2]; stromal layer of ovariectomized rats),Serum cholesterol (in words) (serum cholesterol; 0.1 mg/kg/day),Serum Cholesterol (% decrease vs. OVX) (serum cholesterol; 0.1 mg/kg daily for 4 days) [%],"Tibia BMD pQCT (% protection) [3, 5] [%]","prevention of bone loss (in words) ([3]; ovariectomized rats, 35 days)",Uterine Weight (% increase vs. OVX) ([1]; 1.0 mg/kg daily for 4 days) [%],Uterine Weight (% increase vs. OVX) ([1]; 10.0 mg/kg daily for 4 days) [%],Uterine EPO (V. max) ([2]; 1.0 mg/kg daily for 4 days),Uterine EPO (V. max) ([2]; 10.0 mg/kg daily for 4 days),Serum Cholesterol (% decrease vs. OVX) (serum cholesterol; 1.0 mg/kg daily for 4 days) [%],Serum Cholesterol (% decrease vs. OVX) (serum cholesterol; 10.0 mg/kg daily for 4 days) [%],Tibia BMD pQCT (% protection) ([3]; 0.01 mg/kg daily for 35 days) [%],Tibia BMD pQCT (% protection) ([3]; 1.0 mg/kg daily for 35 days) [%],"Tibia BMD pQCT (% protection) ([3]; 3.0 mg/kg daily for 35 days, value marked * (two tailed Student's T Test)) [%]"
10,"COc1ccc2c(Cc3ccc(OCCN4CCCCC4)cc3)c(C3CCCCC3)ccc2c1 [Example 5, [2-Cyclohexyl-6-methoxynaphthalen-1-yl][4-[2-(1-piperdinyl)ethoxy]phenyl]methane]",,21.2,21.2,,,77.6,,,10.4,6.4,4.2,5.3,76.3,65.8,,,
0.6,"Oc1ccc2c(Cc3ccc(OCCN4CCCCC4)cc3)c(C3CCCCC3)ccc2c1 [Example 6, [2-Cyclohexyl-6-hydroxynaphthalen-1-yl][4-[2-(1-piperdinyl)ethoxy]phenyl]methane hydrochloride]",,65.7,17.7,,,57.4,52.6,,22.8,22.0,4.2,4.5,46.8,63.9,23.1,30.1,59.6
